Measurements as given in paper PMC3796545, “Protein-Protein Interactions as a Strategy towards Protein-Specific Drug Design: The Example of Ataxin-1” (PLoS ONE, 2013).
Where two headings read alike, the source gives them in different places. Peptide text beside a SMILES is read from it.

T1: ATX1 AXH (residues A567–K689 of human ATX1) (Homo sapiens, UniProt P54253)
T1 construct: Recombinant ATX1 AXH (residues A567–K689 of human ATX1); His6-GST (N, cleaved yes); made in house; host or cells: E. coli BL21(DE3)pLysS
T1 sequence (P54253 566-688 limits assumed): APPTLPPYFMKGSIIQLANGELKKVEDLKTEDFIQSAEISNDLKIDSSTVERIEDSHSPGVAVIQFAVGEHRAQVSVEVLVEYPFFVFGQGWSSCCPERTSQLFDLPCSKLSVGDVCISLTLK

T2: ATX1 AXH (residues A567-K689 of human ATX1) (human)
T2 chain: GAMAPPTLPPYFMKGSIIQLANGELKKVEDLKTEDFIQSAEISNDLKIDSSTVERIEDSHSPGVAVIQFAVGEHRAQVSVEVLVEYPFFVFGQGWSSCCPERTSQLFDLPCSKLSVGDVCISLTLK

B1: L-CICp with P42 mutated to alanine (peptide)
peptide: VFPWHSLVAFLAPSQ
B2: L-CICp with F35 mutated to alanine (peptide)
peptide: VAPWHSLVPFLAPSQ
B3: L-CICp with P36 mutated to alanine (peptide)
peptide: VFAWHSLVPFLAPSQ
B4: L-CICp with F43 mutated to alanine (peptide)
peptide: VFPWHSLVPALAPSQ
B5: L-CICp with L44 mutated to alanine (peptide)
peptide: VFPWHSLVPFAAPSQ
B6: L-CICp with S39 mutated to alanine (peptide)
peptide: VFPWHALVPFLAPSQ
B7: L-CICp with V41 mutated to alanine (peptide)
peptide: VFPWHSLAPFLAPSQ
B8: L-CICp with V34 mutated to alanine (peptide)
peptide: AFPWHSLVPFLAPSQ
B9: L-CICp with H38 mutated to alanine (peptide)
peptide: VFPWASLVPFLAPSQ
B10: L-CICp with P46 mutated to alanine (peptide)
peptide: VFPWHSLVPFLAASQ

How the values were obtained:
[1] = target: T1, ATX1 AXH (residues A567–K689 of human ATX1); assay: ITC binding of CIC peptides to ATX1 AXH; conditions: 25°C, 50 mM Tris-HCl pH 7, 50 mM NaCl, 2 mM TCEP, averages of three measurements, read-out: dissociation constant (Kd)
Procedure: Binding affinities of AXH with CIC ligands were measured at 25°C by a MicroCal Omega VP-ITC (MicroCal Inc., Northampton, USA). Both protein and peptides buffers were 50 mM Tris-HCl pH 7, 50 mM NaCl, 2 mM TCEP. Solutions of 0.041 mM AXH in the cell were titrated by injections of a total of 283 µl of 0.410 mM peptide in the syringe in 21 aliquots. Data were processed with the software MicroCal Origin version 5.0 provided by the manufacturer. All dissociation constants were averages of three measurements.

[2] = target: T2, ATX1 AXH (residues A567-K689 of human …); assay: ITC
[3] = 0.041 mM AXH in cell, 0.410 mM peptide in syringe

Molecule | Kd [1, 3] | Kd [2] | further results
CC(C)C[C@H](NC(=O)[C@H](Cc1ccccc1)NC(=O)[C@H](C)NC(=O)[C@@H](NC(=O)[C@H](CC(C)C)NC(=O)[C@H](CO)NC(=O)[C@H](Cc1c[nH]cn1)NC(=O)[C@H](Cc1c[nH]c2ccccc12)NC(=O)[C@@H]1CCCN1C(=O)[C@H](Cc1ccccc1)NC(=O)[C@@H](N)C(C)C)C(C)C)C(=O)N[C@@H](C)C(=O)N1CCC[C@H]1C(=O)N[C@@H](CO)C(=O)N[C@@H](CCC(N)=O)C(=O)O [P42] (H-VFPWHSLVAFLAPSQ-OH) | 0.04 µM |  | 
CC(C)C[C@H](NC(=O)[C@H](Cc1ccccc1)NC(=O)[C@@H]1CCCN1C(=O)[C@@H](NC(=O)[C@H](CC(C)C)NC(=O)[C@H](CO)NC(=O)[C@H](Cc1c[nH]cn1)NC(=O)[C@H](Cc1c[nH]c2ccccc12)NC(=O)[C@@H]1CCCN1C(=O)[C@H](Cc1ccccc1)NC(=O)[C@H](C)N)C(C)C)C(=O)N[C@@H](C)C(=O)N1CCC[C@H]1C(=O)N[C@@H](CO)C(=O)N[C@@H](CCC(N)=O)C(=O)O [V34] (H-AFPWHSLVPFLAPSQ-OH) | 0.02 µM |  | 
CC(C)C[C@H](NC(=O)[C@H](Cc1ccccc1)NC(=O)[C@@H]1CCCN1C(=O)[C@@H](NC(=O)[C@H](CC(C)C)NC(=O)[C@H](CO)NC(=O)[C@H](Cc1c[nH]cn1)NC(=O)[C@H](Cc1c[nH]c2ccccc12)NC(=O)[C@@H]1CCCN1C(=O)[C@H](Cc1ccccc1)NC(=O)[C@@H](N)C(C)C)C(C)C)C(=O)N[C@@H](C)C(=O)N1CCC[C@H]1C(=O)N[C@@H](CO)C(=O)N[C@@H](CCC(N)=O)C(=O)O [L-CICp] (H-VFPWHSLVPFLAPSQ-OH) | 0.03 µM |  | Kd [1]: ~0.033 µM
CC(C)C[C@H](NC(=O)[C@H](C)NC(=O)[C@H](Cc1c[nH]cn1)NC(=O)[C@H](Cc1c[nH]c2ccccc12)NC(=O)[C@@H]1CCCN1C(=O)[C@H](Cc1ccccc1)NC(=O)[C@@H](N)C(C)C)C(=O)N[C@H](C(=O)N1CCC[C@H]1C(=O)N[C@@H](Cc1ccccc1)C(=O)N[C@@H](CC(C)C)C(=O)N[C@@H](C)C(=O)N1CCC[C@H]1C(=O)N[C@@H](CO)C(=O)N[C@@H](CCC(N)=O)C(=O)O)C(C)C [S39] (H-VFPWHALVPFLAPSQ-OH) | 0.01 µM |  | 
CC(C)C[C@H](NC(=O)[C@H](Cc1ccccc1)NC(=O)[C@@H]1CCCN1C(=O)[C@@H](NC(=O)[C@H](C)NC(=O)[C@H](CO)NC(=O)[C@H](Cc1c[nH]cn1)NC(=O)[C@H](Cc1c[nH]c2ccccc12)NC(=O)[C@@H]1CCCN1C(=O)[C@H](Cc1ccccc1)NC(=O)[C@@H](N)C(C)C)C(C)C)C(=O)N[C@@H](C)C(=O)N1CCC[C@H]1C(=O)N[C@@H](CO)C(=O)N[C@@H](CCC(N)=O)C(=O)O [L40] (H-VFPWHSAVPFLAPSQ-OH) | 0.5 µM |  | 
CC(C)C[C@H](NC(=O)[C@H](Cc1ccccc1)NC(=O)[C@@H]1CCCN1C(=O)[C@@H](NC(=O)[C@H](CC(C)C)NC(=O)[C@H](CO)NC(=O)[C@H](C)NC(=O)[C@H](Cc1c[nH]c2ccccc12)NC(=O)[C@@H]1CCCN1C(=O)[C@H](Cc1ccccc1)NC(=O)[C@@H](N)C(C)C)C(C)C)C(=O)N[C@@H](C)C(=O)N1CCC[C@H]1C(=O)N[C@@H](CO)C(=O)N[C@@H](CCC(N)=O)C(=O)O [H38] (H-VFPWASLVPFLAPSQ-OH) | 0.05 µM |  | 
CC(C)C[C@H](NC(=O)[C@H](Cc1ccccc1)NC(=O)[C@@H]1CCCN1C(=O)[C@@H](NC(=O)[C@H](CC(C)C)NC(=O)[C@H](CO)NC(=O)[C@H](Cc1c[nH]cn1)NC(=O)[C@H](Cc1c[nH]c2ccccc12)NC(=O)[C@@H]1CCCN1C(=O)[C@H](Cc1ccccc1)NC(=O)[C@@H](N)C(C)C)C(C)C)C(=O)NCC(=O)N1CCC[C@H]1C(=O)N[C@@H](CO)C(=O)N[C@@H](CCC(N)=O)C(=O)O [A45] (H-VFPWHSLVPFLGPSQ-OH) | 0.02 µM |  | 
CC(C)C[C@H](NC(=O)[C@H](Cc1ccccc1)NC(=O)[C@@H]1CCCN1C(=O)[C@@H](NC(=O)[C@H](CC(C)C)NC(=O)[C@H](CO)NC(=O)[C@H](Cc1c[nH]cn1)NC(=O)[C@H](Cc1c[nH]c2ccccc12)NC(=O)[C@@H]1CCCN1C(=O)[C@H](Cc1ccccc1)NC(=O)[C@@H](N)C(C)C)C(C)C)C(=O)N[C@@H](C)C(=O)N[C@@H](C)C(=O)N[C@@H](CO)C(=O)N[C@@H](CCC(N)=O)C(=O)O [P46] (H-VFPWHSLVPFLAASQ-OH) | 0.02 µM |  | 
CC(C)C[C@H](NC(=O)[C@H](Cc1ccccc1)NC(=O)[C@@H]1CCCN1C(=O)[C@@H](NC(=O)[C@H](CC(C)C)NC(=O)[C@H](CO)NC(=O)[C@H](Cc1c[nH]cn1)NC(=O)[C@H](Cc1c[nH]c2ccccc12)NC(=O)[C@@H]1CCCN1C(=O)[C@H](C)NC(=O)[C@@H](N)C(C)C)C(C)C)C(=O)N[C@@H](C)C(=O)N1CCC[C@H]1C(=O)N[C@@H](CO)C(=O)N[C@@H](CCC(N)=O)C(=O)O [F35] (H-VAPWHSLVPFLAPSQ-OH) | 0.03 µM |  | 
CC(C)C[C@H](NC(=O)[C@H](CO)NC(=O)[C@H](Cc1c[nH]cn1)NC(=O)[C@H](Cc1c[nH]c2ccccc12)NC(=O)[C@@H]1CCCN1C(=O)[C@H](Cc1ccccc1)NC(=O)[C@@H](N)C(C)C)C(=O)N[C@H](C(=O)N1CCC[C@H]1C(=O)N[C@@H](Cc1ccccc1)C(=O)N[C@@H](C)C(=O)N[C@@H](C)C(=O)N1CCC[C@H]1C(=O)N[C@@H](CO)C(=O)N[C@@H](CCC(N)=O)C(=O)O)C(C)C [L44] (H-VFPWHSLVPFAAPSQ-OH) | 0.05 µM |  | 
CC(C)C[C@H](NC(=O)[C@H](Cc1ccccc1)NC(=O)[C@@H]1CCCN1C(=O)[C@@H](NC(=O)[C@H](CC(C)C)NC(=O)[C@H](CO)NC(=O)[C@H](Cc1c[nH]cn1)NC(=O)[C@H](Cc1c[nH]c2ccccc12)NC(=O)[C@@H]1CCCN1)C(C)C)C(=O)N[C@@H](C)C(=O)N1CCC[C@H]1C(=O)N[C@@H](CO)C(=O)N[C@@H](CCC(N)=O)C(=O)O [CICp] (H-PWHSLVPFLAPSQ-OH) | 8 µM |  | 
CC(C)C[C@H](NC(=O)[C@H](Cc1ccccc1)NC(=O)[C@@H]1CCCN1C(=O)[C@@H](NC(=O)[C@H](CC(C)C)NC(=O)[C@H](CO)NC(=O)[C@H](Cc1c[nH]cn1)NC(=O)[C@H](C)NC(=O)[C@@H]1CCCN1C(=O)[C@H](Cc1ccccc1)NC(=O)[C@@H](N)C(C)C)C(C)C)C(=O)N[C@@H](C)C(=O)N1CCC[C@H]1C(=O)N[C@@H](CO)C(=O)N[C@@H](CCC(N)=O)C(=O)O [W37] (H-VFPAHSLVPFLAPSQ-OH) | 2.6 µM |  | 
CC(C)C[C@H](NC(=O)[C@H](C)NC(=O)[C@@H]1CCCN1C(=O)[C@@H](NC(=O)[C@H](CC(C)C)NC(=O)[C@H](CO)NC(=O)[C@H](Cc1c[nH]cn1)NC(=O)[C@H](Cc1c[nH]c2ccccc12)NC(=O)[C@@H]1CCCN1C(=O)[C@H](Cc1ccccc1)NC(=O)[C@@H](N)C(C)C)C(C)C)C(=O)N[C@@H](C)C(=O)N1CCC[C@H]1C(=O)N[C@@H](CO)C(=O)N[C@@H](CCC(N)=O)C(=O)O [F43] (H-VFPWHSLVPALAPSQ-OH) | 0.06 µM |  | 
CC(C)C[C@H](NC(=O)[C@H](Cc1ccccc1)NC(=O)[C@@H]1CCCN1C(=O)[C@@H](NC(=O)[C@H](CC(C)C)NC(=O)[C@H](CO)NC(=O)[C@H](Cc1c[nH]cn1)NC(=O)[C@H](Cc1c[nH]c2ccccc12)NC(=O)[C@H](C)NC(=O)[C@H](Cc1ccccc1)NC(=O)[C@@H](N)C(C)C)C(C)C)C(=O)N[C@@H](C)C(=O)N1CCC[C@H]1C(=O)N[C@@H](CO)C(=O)N[C@@H](CCC(N)=O)C(=O)O [P36] (H-VFAWHSLVPFLAPSQ-OH) | 0.04 µM |  | 
CC(C)C[C@H](NC(=O)[C@H](Cc1ccccc1)NC(=O)[C@@H]1CCCN1C(=O)[C@H](C)NC(=O)[C@H](CC(C)C)NC(=O)[C@H](CO)NC(=O)[C@H](Cc1c[nH]cn1)NC(=O)[C@H](Cc1c[nH]c2ccccc12)NC(=O)[C@@H]1CCCN1C(=O)[C@H](Cc1ccccc1)NC(=O)[C@@H](N)C(C)C)C(=O)N[C@@H](C)C(=O)N1CCC[C@H]1C(=O)N[C@@H](CO)C(=O)N[C@@H](CCC(N)=O)C(=O)O [V41] (H-VFPWHSLAPFLAPSQ-OH) | 0.07 µM |  | 
B1 |  | 0.04 µM | 
B2 |  | 0.03 µM | 
B3 |  | 0.04 µM | 
B4 |  | 0.06 µM | 
B5 |  | 0.05 µM | 
B6 |  | 0.01 µM | 
B7 |  | 0.07 µM | 
B8 |  | 0.02 µM | 
B9 |  | 0.05 µM | 
B10 |  | 0.02 µM | 
